Results reported in patent publication US20080199485A1 (priority 2007, published 2008).
“Also recorded” adds a separate entry of the source.

Key:
[1] = system: TCR-transgenic gp33-specific T cells; format: cell-based, mouse
[2] = system: EL-4 cells pulsed with gp33 peptide; format: cell-based, mouse

In the case of KAVYNFATM [gp33], the IFN-γ production [1] is reported as “transiently produced at an early stage”, the IFN-γ secretion [1] is reported as “higher amounts of IFN-gamma” and the IL-10 production [1] is reported as “high amounts of IL-10 with an earlier onset”. For the same sequence, the CTL response [2] was “strongest CTL response; also recorded: weaker CTL responses”.
